We go through 14 compounds from publication PMC11968819 (Scientific Reports, 2025).

Some results are limits rather than exact numbers.

For data set [1] the following is noted: human, four-donor-derived monolayer models (Supplementary Fig. 8a).
Data set [2] deals with human duodenal organoid-derived monolayer model. The experiment in a line: FaSSIF tolerability assay with lucifer yellow. The format is in vitro ADME. Conditions: FaSSIF pH 6.5 apical, 2 h; within individual experiments and inter-experiments.
Data set [3] concerns the target P-gp (Homo sapiens, UniProt P08183). The experiment in a line: Efflux drug transporter assay with digoxin. Conditions: 10 μM digoxin, 10 μM inhibitor.
Data set [4] concerns UDP-glucuronosyltransferase (UGT). Briefly: Raloxifene permeability and metabolizing assay. It is filed as in vitro ADME, human. Conditions: 5 μM raloxifene.
In data set [5] the target is T1, Carboxylesterase 2 (CES2) (Homo sapiens, UniProt O00748).
T1 sequence (O00748 27-559): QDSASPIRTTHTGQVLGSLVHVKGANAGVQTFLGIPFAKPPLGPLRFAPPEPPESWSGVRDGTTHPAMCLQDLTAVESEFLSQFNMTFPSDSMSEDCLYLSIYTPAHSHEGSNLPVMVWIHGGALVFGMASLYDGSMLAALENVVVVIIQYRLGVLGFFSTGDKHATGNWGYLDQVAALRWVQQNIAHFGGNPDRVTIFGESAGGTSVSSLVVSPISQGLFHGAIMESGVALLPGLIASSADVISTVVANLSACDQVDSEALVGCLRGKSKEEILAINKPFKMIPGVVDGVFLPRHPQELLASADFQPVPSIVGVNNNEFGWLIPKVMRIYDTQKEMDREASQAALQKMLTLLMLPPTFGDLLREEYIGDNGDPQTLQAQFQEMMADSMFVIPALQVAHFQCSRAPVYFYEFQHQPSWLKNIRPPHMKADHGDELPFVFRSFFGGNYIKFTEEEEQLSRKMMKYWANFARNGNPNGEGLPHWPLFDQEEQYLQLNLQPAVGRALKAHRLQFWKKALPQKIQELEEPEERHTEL
The experiment in a line: Irinotecan metabolizing assay. The format is in vitro ADME. Conditions: 10 μM irinotecan, 20 μM loperamide, 3 h.

The subject of data set [6] is human duodenal organoid-derived monolayer model.

Chain of P-gp (P08183 whole entry): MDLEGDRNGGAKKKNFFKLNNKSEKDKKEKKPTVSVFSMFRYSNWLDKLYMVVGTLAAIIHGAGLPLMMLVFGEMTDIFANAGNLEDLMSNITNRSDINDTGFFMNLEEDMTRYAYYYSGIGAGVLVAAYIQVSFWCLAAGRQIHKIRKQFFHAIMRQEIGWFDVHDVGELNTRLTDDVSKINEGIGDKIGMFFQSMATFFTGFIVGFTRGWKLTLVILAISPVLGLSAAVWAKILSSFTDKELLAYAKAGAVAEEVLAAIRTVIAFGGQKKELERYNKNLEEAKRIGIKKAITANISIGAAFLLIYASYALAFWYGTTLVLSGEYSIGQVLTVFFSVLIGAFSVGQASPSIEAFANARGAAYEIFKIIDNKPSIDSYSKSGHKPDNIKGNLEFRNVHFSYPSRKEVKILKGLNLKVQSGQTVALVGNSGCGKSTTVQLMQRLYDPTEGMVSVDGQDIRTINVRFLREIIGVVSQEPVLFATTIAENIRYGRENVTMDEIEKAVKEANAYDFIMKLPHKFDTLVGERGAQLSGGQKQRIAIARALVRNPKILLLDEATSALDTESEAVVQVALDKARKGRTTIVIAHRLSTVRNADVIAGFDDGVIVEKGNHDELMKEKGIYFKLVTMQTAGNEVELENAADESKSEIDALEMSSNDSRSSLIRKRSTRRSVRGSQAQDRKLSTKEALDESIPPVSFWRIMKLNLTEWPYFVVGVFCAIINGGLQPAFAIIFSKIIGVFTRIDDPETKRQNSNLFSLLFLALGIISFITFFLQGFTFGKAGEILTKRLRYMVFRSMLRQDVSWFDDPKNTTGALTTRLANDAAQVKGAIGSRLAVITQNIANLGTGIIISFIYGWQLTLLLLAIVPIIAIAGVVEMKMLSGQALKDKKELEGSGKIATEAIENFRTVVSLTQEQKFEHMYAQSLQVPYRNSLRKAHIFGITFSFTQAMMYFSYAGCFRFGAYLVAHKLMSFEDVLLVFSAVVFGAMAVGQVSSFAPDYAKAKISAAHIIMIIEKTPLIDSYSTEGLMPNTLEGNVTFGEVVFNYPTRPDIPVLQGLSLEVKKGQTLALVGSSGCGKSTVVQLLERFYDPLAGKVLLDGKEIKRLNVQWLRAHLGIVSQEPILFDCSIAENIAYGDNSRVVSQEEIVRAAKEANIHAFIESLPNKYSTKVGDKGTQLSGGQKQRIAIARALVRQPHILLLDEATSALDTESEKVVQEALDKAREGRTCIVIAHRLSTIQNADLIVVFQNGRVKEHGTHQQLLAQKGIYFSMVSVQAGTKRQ

The Papp is the rate of passage across a membrane or cell layer, normalised by area and donor concentration. Regarding `NC(=O)N1c2ccccc2C=Cc2ccccc21` [Carbamazepine], the Papp at 10 μM in data set [1] is over 10 nm/s.

With `Cc1cc(=O)n(-c2ccccc2)n1C` [Antipyrine], in data set [1], the apparent permeability (Papp) at 10 μM is over 10 nm/s.

The compound `CC(C(=O)O)c1cccc(C(=O)c2ccccc2)c1` (stereo not drawn) [Ketoprofen] registered a Papp at 10 μM in data set [1] of over 10 nm/s.

Take lucifer yellow: in data set [2], the “Papp of lucifer yellow” value is reported as “below 1.0 × 10^–6 cm/s”.

As for `O[C@@H](COc1cccc2ncccc12)CN1CCN([C@@H]2c3ccccc3[C@@H]3[C@H](c4ccccc42)C3(F)F)CC1` [zosquidar, zosuquidar], in data set [3], the “Effect on transport of P-gp substrate digoxin” value is recorded as “canceled”.

As to `CCC1=C(C)CN(C(=O)NCCc2ccc(S(=O)(=O)NC(=O)N[C@H]3CC[C@H](C)CC3)cc2)C1=O` [Glimepiride], the apparent permeability coefficient (Papp) at 10 μM in data set [1] is over 10 nm/s.

In data set [1], `O=C(O)C[C@H](O)C[C@H](O)/C=C/c1c(C2CC2)nc2ccccc2c1-c1ccc(F)cc1` [Pitavastatin] came in with a Papp at 10 μM of over 10 nm/s.

Consider `O=C(c1ccc(OCCN2CCCCC2)cc1)c1c(-c2ccc(O)cc2)sc2cc(O)ccc12` [Raloxifene], for which, in data set [4], the “Metabolism by UGT” value was “mostly found to be metabolized to glucuronide”.

Turning to `COCCc1ccc(OCC(O)CNC(C)C)cc1` (stereo not drawn) [Metoprolol], the apparent permeability coefficient (Papp) at 10 μM in data set [1] was over 10 nm/s.

For the compound `CN(CCOc1ccc(CC2SC(=O)NC2=O)cc1)c1ccccn1` (stereo not drawn) [Rosiglitazone], the Papp at 10 μM in data set [1] was over 10 nm/s.

For `CN(C)C(=O)C(CCN1CCC(O)(c2ccc(Cl)cc2)CC1)(c1ccccc1)c1ccccc1` [loperamide], the “Effect on generation of SN-38 from irinotecan” value in data set [5] is given as “significantly inhibited”.

`Cc1onc(-c2ccccc2)c1C(=O)N[C@@H]1C(=O)N2[C@@H]1SC(C)(C)[C@@H]2C(=O)O` [Oxacillin] showed an apparent permeability (Papp) at 10 μM in data set [1] of under 10 nm/s.

Compound `CC(C)NCC(O)COc1cccc2ccccc12` (stereo not drawn) [Propranolol] had an apparent permeability (Papp) at 10 μM in data set [1] of over 10 nm/s.

Take `Nn1nnc2ccccc21` [ABT, 1-aminobenzotriazole]: in data set [6], the “Effect on amount of midazolam metabolites” value is “significantly decreased” and the “Effect on midazolam permeability” value is listed as “significantly enhanced”.
